According to the NIST ThermoML archive (doi:10.1021/acs.jced.9b00145):

Test: xn = mol fraction of the nth substance listed
Conditions: 100 kPa, Liquid, Vibrating tube method, x2 = 0.3333

NC(N)=O [urea] + C[N+](C)(C)CCO.[Cl-]
Conditions | mass density [kg/m3]
293.15 K | 1199.42
298.15 K | 1196.68
303.15 K | 1193.96
308.15 K | 1191.19
313.15 K | 1188.52
318.15 K | 1185.87
323.15 K | 1183.2
328.15 K | 1180.53
333.15 K | 1177.87
338.15 K | 1175.22
